Reference: ChEMBL document CHEMBL1777766, “Design, synthesis and in vitro antibacterial activity of 7-(4-alkoxyimino-3-aminomethylpiperidin-1-yl)fluoroquinolone derivatives” (Bioorg Med Chem Lett, 2011)
In brackets after ≈: the same amount, converted by molar mass.

Key:
[1] = system: Streptococcus pneumoniae; test: Antibacterial activity against penicillin-resistant Streptococcus pneumoniae 08-2; type: functional
[2] = system: Acinetobacter calcoaceticus; test: Antibacterial activity against Acinetobacter calcoaceticus 25001; type: functional
[3] = system: Staphylococcus aureus; test: Antibacterial activity against methicillin-sensitive Staphylococcus aureus 08-49; type: functional
[4] = system: Klebsiella pneumoniae; test: Antibacterial activity against Klebsiella pneumoniae ATCC 700603; type: functional
[5] = system: Enterococcus faecalis; test: Antibacterial activity against Enterococcus faecalis ATCC 51299; type: functional
[6] = system: Shigella sonnei; test: Antibacterial activity against Shigella sonnei 51592; type: functional
[7] = system: Staphylococcus epidermidis; test: Antibacterial activity against methicillin-sensitive Staphylococcus epidermidis 08-17; type: functional
[8] = system: Pseudomonas aeruginosa; test: Antibacterial activity against Pseudomonas aeruginosa 17; type: functional
[9] = system: Escherichia coli; test: Antibacterial activity against Escherichia coli ATCC 25922; type: functional
[10] = system: Enterococcus faecalis; test: Antibacterial activity against vancomycin-resistant Enterococcus faecalis EFL1004; type: functional
[11] = system: Morganella morganii; test: Antibacterial activity against Morganella morganii 49086; type: functional
[12] = system: Proteus vulgaris; test: Antibacterial activity against Proteus vulgaris 56; type: functional
[13] = system: Providencia rettgeri; test: Antibacterial activity against Proteus rettgeri 49006; type: functional
[14] = system: Streptococcus pneumoniae; test: Antibacterial activity against Streptococcus pneumoniae ATCC 6301; type: functional
[15] = system: Enterobacter cloacae; test: Antibacterial activity against Enterobacter cloacae 45301; type: functional
[16] = system: Staphylococcus epidermidis; test: Antibacterial activity against Staphylococcus epidermidis ATCC 12228; type: functional
[17] = system: Staphylococcus aureus; test: Antibacterial activity against methicillin-resistant Staphylococcus aureus 08-52; type: functional
[18] = system: Salmonella typhi; test: Antibacterial activity against Bacillus typhi 50035; type: functional, Salmonella enterica subsp. enterica serovar Typhi; settings: Salmonella enterica
[19] = system: Escherichia coli; test: Antibacterial activity against Extended spectrum beta-lactamase producing Escherichia coli 08-5; type: functional
[20] = system: Klebsiella aerogenes; test: Antibacterial activity against Enterobacter aerogenes 45102; type: functional
[21] = system: Streptococcus pyogenes; test: Antibacterial activity against Streptococcus pyogenes 556; type: functional
[22] = system: Serratia marcescens; test: Antibacterial activity against Serratia marcescens 41002; type: functional
[23] = system: Staphylococcus aureus; test: Antibacterial activity against Staphylococcus aureus ATCC 13709; type: functional
[24] = system: Staphylococcus epidermidis; test: Antibacterial activity against methicillin-resistant Staphylococcus epidermidis 08-18; type: functional
[25] = Cytotoxicity against african green monkey Vero cells after 24 hrs; type: cell-based; settings: chlorocebus sabaeus

SMILES | MIC [1] [µg/mL] | MIC [2] [µg/mL] | MIC [3] [µg/mL] | MIC [5] [µg/mL] | MIC [6] [µg/mL] | MIC [7] [µg/mL] | MIC [8] [µg/mL] | MIC [9] [µg/mL] | MIC [10] [µg/mL] | MIC [11] [µg/mL] | MIC [12] [µg/mL] | MIC [13] [µg/mL] | MIC [16] [µg/mL] | MIC [17] [µg/mL] | MIC [18] [µg/mL] | MIC [19] [µg/mL] | MIC [20] [µg/mL] | MIC [21] [µg/mL] | MIC [22] [µg/mL] | MIC [24] [µg/mL] | other results
CO/N=C1\CCN(c2c(F)cc3c(=O)c(C(=O)O)cn(CCF)c3c2F)CC1CN (racemic) | 16 (≈ 37.5 µM) | 128 (≈ 300 µM) | 2 (≈ 4.69 µM) | 8 (≈ 18.8 µM) | 32 (≈ 75 µM) | 32 (≈ 75 µM) | 32 (≈ 75 µM) | 8 (≈ 18.8 µM) | 16 (≈ 37.5 µM) | 16 (≈ 37.5 µM) | 16 (≈ 37.5 µM) | 16 (≈ 37.5 µM) | 8 (≈ 18.8 µM) | 8 (≈ 18.8 µM) | 8 (≈ 18.8 µM) | > 128 | 32 (≈ 75 µM) | 32 (≈ 75 µM) | 16 (≈ 37.5 µM) | 8 (≈ 18.8 µM) | MIC [4]: 128 µg/mL (≈ 300 µM); MIC [14]: 32 µg/mL (≈ 75 µM); MIC [15]: > 128 µg/mL; MIC [23]: 4 µg/mL (≈ 9.38 µM)
CCO/N=C1\CCN(c2c(F)cc3c(=O)c(C(=O)O)cn(CCF)c3c2F)CC1CN (racemic) | 32 (≈ 72.7 µM) | 128 (≈ 291 µM) | 8 (≈ 18.2 µM) | 16 (≈ 36.3 µM) | 8 (≈ 18.2 µM) | 64 (≈ 145 µM) | 64 (≈ 145 µM) | 8 (≈ 18.2 µM) | 64 (≈ 145 µM) | 8 (≈ 18.2 µM) | 16 (≈ 36.3 µM) | 32 (≈ 72.7 µM) | 16 (≈ 36.3 µM) | 16 (≈ 36.3 µM) | 8 (≈ 18.2 µM) | > 128 | 16 (≈ 36.3 µM) | 64 (≈ 145 µM) | 16 (≈ 36.3 µM) | 8 (≈ 18.2 µM) | MIC [4]: > 128 µg/mL; MIC [14]: 64 µg/mL (≈ 145 µM); MIC [15]: 16 µg/mL (≈ 36.3 µM); CC50 at 24 h [25]: > 500 µg/mL; MIC [23]: 8 µg/mL (≈ 18.2 µM)
CO/N=C1\CCN(c2c(F)cc3c(=O)c(C(=O)O)cn(C4CC4)c3c2OC)CC1CN (racemic) | 4 (≈ 9.25 µM) | 4 (≈ 9.25 µM) | 0.25 (≈ 0.578 µM) | 4 (≈ 9.25 µM) | 4 (≈ 9.25 µM) | 4 (≈ 9.25 µM) | 8 (≈ 18.5 µM) | 4 (≈ 9.25 µM) | 8 (≈ 18.5 µM) | 4 (≈ 9.25 µM) | 8 (≈ 18.5 µM) | 8 (≈ 18.5 µM) | 1 (≈ 2.31 µM) | 4 (≈ 9.25 µM) | 4 (≈ 9.25 µM) | > 128 | 4 (≈ 9.25 µM) | 8 (≈ 18.5 µM) | 8 (≈ 18.5 µM) | 4 (≈ 9.25 µM) | MIC [4]: 64 µg/mL (≈ 148 µM); MIC [14]: 4 µg/mL (≈ 9.25 µM); MIC [15]: > 128 µg/mL; CC50 at 24 h [25]: 395 µg/mL (≈ 914 µM); MIC [23]: 0.5 µg/mL (≈ 1.16 µM)
CCO/N=C1\CCN(c2c(F)cc3c(=O)c(C(=O)O)cn(C4CC4)c3c2OC)CC1CN (racemic) | 4 (≈ 8.96 µM) | 8 (≈ 17.9 µM) | 0.25 (≈ 0.56 µM) | 4 (≈ 8.96 µM) | 8 (≈ 17.9 µM) | 4 (≈ 8.96 µM) | 32 (≈ 71.7 µM) | 4 (≈ 8.96 µM) | 8 (≈ 17.9 µM) | 16 (≈ 35.8 µM) | 32 (≈ 71.7 µM) | 32 (≈ 71.7 µM) | 2 (≈ 4.48 µM) | 2 (≈ 4.48 µM) | 4 (≈ 8.96 µM) | > 128 | 16 (≈ 35.8 µM) | 8 (≈ 17.9 µM) | 32 (≈ 71.7 µM) | 2 (≈ 4.48 µM) | MIC [4]: 128 µg/mL (≈ 287 µM); MIC [14]: 8 µg/mL (≈ 17.9 µM); MIC [15]: > 128 µg/mL; CC50 at 24 h [25]: 173 µg/mL (≈ 388 µM); MIC [23]: 1 µg/mL (≈ 2.24 µM)
O=C(O)c1cn(C2CC2)c2cc(N3CCNCC3)c(F)cc2c1=O [CIPROFLOXACIN] | 1 (≈ 3.02 µM) | 1 (≈ 3.02 µM) | 0.25 (≈ 0.754 µM) | 0.5 (≈ 1.51 µM) | ≤ 0.03 | 2 (≈ 6.04 µM) | 16 (≈ 48.3 µM) | ≤ 0.03 | 1 (≈ 3.02 µM) | ≤ 0.03 | ≤ 0.03 | ≤ 0.03 | 0.25 (≈ 0.754 µM) | 4 (≈ 12.1 µM) | ≤ 0.03 | 128 (≈ 386 µM) | ≤ 0.03 | 1 (≈ 3.02 µM) | 0.25 (≈ 0.754 µM) | 0.25 (≈ 0.754 µM) | MIC [4]: 0.5 µg/mL (≈ 1.51 µM); MIC [14]: 1 µg/mL (≈ 3.02 µM)
CO/N=C1\CN(c2nc3c(cc2F)c(=O)c(C(=O)O)cn3C2CC2)CC1CN (stereo unspecified) [GEMIFLOXACIN] | ≤ 0.03 | 0.125 (≈ 0.321 µM) | ≤ 0.03 | 0.06 (≈ 0.154 µM) | ≤ 0.03 | 0.06 (≈ 0.154 µM) | 32 (≈ 82.2 µM) | ≤ 0.03 | 0.5 (≈ 1.28 µM) | 0.06 (≈ 0.154 µM) | ≤ 0.03 | 0.06 (≈ 0.154 µM) | 0.06 (≈ 0.154 µM) | 0.5 (≈ 1.28 µM) | ≤ 0.03 | 32 (≈ 82.2 µM) | ≤ 0.03 | 0.125 (≈ 0.321 µM) | 0.125 (≈ 0.321 µM) | ≤ 0.03 | MIC [4]: 0.5 µg/mL (≈ 1.28 µM); MIC [14]: 0.5 µg/mL (≈ 1.28 µM); MIC [15]: ≤ 0.03 µg/mL; MIC [23]: ≤ 0.03 µg/mL
C[C@H]1COc2c(N3CCN(C)CC3)c(F)cc3c(=O)c(C(=O)O)cn1c23.C[C@H]1COc2c(N3CCN(C)CC3)c(F)cc3c(=O)c(C(=O)O)cn1c23.O [LEVOFLOXACIN] | – | 0.25 | 0.06 | 0.25 | ≤ 0.03 | 1 | 8 | ≤ 0.03 | 2 | ≤ 0.03 | ≤ 0.03 | 0.25 | 0.125 | 1 | ≤ 0.03 | 32 | ≤ 0.03 | 1 | 0.25 | 0.125 | MIC [15]: 0.06 µg/mL; MIC [23]: 0.06 µg/mL
